Measured values: ChEMBL document CHEMBL5370623, “Discovery of Quinazoline-2,4(1H,3H)-dione Derivatives Containing a Piperizinone Moiety as Potent PARP-1/2 Inhibitors─Design, Synthesis, In Vivo Antitumor Activity, and X-ray Crystal Structure Analysis” (J Med Chem, 2023)
The source made the active and inactive calls. The rule behind the calls is not given here.

What was measured:
[1] = biological target: Protein mono-ADP-ribosyltransferase PARP15 (Homo sapiens) (UniProt Q460N3); test: Inhibition of human N-terminal GST-tagged recombinant PARP15 (221 to 444(end) residues) expressed in Escherichia coli at 1 uM relative to control
Felis catus [2] = species on record: Felis catus; test: Binding affinity to cat PARP1 assessed as dissociative half-life by SPR assay
[3] = biological target: Poly [ADP-ribose] polymerase tankyrase-1 (Homo sapiens) (UniProt O95271); test: Inhibition of human recombinant N-terminal GST-tagged TNKS1 (1001 to 1327(end) residues) expressed in Sf9 cells at 1 uM relative to control
[4] = biological target: Protein mono-ADP-ribosyltransferase PARP14 (Homo sapiens) (UniProt Q460N5); test: Inhibition of human N-terminal GST/His-tagged recombinant PARP14 (1470 to 1801(end) residues) expressed in Sf9 cells at 1 uM relative to control
Protein mono-ADP-ribosyltransferase PARP14 (Homo sapiens), sequence (Q460N5 whole entry): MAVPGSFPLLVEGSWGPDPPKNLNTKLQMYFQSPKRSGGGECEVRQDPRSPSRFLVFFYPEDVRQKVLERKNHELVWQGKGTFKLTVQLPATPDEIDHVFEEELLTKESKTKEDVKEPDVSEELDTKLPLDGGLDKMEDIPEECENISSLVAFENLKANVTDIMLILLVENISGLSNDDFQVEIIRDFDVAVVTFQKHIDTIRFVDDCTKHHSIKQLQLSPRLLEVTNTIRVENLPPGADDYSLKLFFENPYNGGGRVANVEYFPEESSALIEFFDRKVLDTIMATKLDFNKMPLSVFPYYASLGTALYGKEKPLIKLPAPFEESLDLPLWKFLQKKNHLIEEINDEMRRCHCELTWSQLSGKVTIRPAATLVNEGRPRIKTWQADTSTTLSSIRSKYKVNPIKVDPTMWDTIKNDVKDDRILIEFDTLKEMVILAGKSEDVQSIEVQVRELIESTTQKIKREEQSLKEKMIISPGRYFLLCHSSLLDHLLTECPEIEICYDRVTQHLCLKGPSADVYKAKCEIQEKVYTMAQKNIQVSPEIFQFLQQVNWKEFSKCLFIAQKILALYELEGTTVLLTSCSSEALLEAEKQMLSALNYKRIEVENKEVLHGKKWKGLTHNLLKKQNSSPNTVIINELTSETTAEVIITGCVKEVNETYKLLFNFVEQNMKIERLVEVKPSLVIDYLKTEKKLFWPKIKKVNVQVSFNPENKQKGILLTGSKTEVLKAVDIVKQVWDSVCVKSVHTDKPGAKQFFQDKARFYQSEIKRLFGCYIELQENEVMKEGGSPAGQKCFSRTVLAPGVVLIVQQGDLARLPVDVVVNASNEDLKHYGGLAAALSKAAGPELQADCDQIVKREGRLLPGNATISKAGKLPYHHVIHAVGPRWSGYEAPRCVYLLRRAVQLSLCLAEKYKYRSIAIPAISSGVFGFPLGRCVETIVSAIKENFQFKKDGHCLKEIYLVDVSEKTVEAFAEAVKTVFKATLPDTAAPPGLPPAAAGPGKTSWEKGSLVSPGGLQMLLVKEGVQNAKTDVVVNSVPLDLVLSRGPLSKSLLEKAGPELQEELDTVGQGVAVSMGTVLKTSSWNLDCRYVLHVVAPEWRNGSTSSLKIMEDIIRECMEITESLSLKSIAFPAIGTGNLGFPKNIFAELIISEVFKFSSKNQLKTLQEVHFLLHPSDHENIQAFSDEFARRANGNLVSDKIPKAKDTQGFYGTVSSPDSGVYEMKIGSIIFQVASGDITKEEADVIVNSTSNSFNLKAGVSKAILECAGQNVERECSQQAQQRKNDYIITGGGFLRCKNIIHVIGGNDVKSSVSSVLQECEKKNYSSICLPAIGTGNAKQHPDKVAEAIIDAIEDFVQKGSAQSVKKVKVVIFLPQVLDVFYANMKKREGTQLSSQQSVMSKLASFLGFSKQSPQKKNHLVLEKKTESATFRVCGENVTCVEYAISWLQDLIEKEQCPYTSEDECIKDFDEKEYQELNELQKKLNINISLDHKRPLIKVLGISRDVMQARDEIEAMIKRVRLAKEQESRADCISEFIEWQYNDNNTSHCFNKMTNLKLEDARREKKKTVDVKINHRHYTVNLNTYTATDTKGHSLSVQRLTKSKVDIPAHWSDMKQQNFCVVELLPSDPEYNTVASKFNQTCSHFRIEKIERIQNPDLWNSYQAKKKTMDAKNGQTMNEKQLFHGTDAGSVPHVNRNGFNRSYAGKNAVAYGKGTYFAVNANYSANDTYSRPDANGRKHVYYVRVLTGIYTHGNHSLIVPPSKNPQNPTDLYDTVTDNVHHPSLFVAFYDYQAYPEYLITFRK

[5] = biological target: Protein mono-ADP-ribosyltransferase PARP11 (Homo sapiens) (UniProt Q9NR21); test: Inhibition of human N-terminal FLAG-tagged/C-terminal His-tagged recombinant PARP11 (8 to 338 (end) residues) expressed in Sf9 cells at 1 uM relative to control
[6] = biological target: Protein mono-ADP-ribosyltransferase PARP10 (Homo sapiens) (UniProt Q53GL7); test: Inhibition of human N-terminal FLAG-tagged/C-terminal Strep-tagged recombinant PARP10 (805 to 1025 residues) expressed in Sf9 cells at 1 uM relative to control
[7] = biological target: Protein mono-ADP-ribosyltransferase TIPARP (Homo sapiens) (UniProt Q7Z3E1); test: Inhibition of PARP7 in human THP-1 cells assessed as induction of TBK1 phosphorylation at 10 uM incubated for 24 hrs by immunoblotting analysis; assay type: cell-based
MC-38 [8] = test: Antitumor activity against mouse MC38 cells implanted in C57BL/6 mouse assessed as increase in CD8+T cells in tumor at 10 mg/kg, po qd measured after 17 days by flow cytometry analysis; assay type: functional, organism-based; conditions: time 17.0 day
THP-1 = test: Inhibition of PARP1/2 mediated DNA repair pathway in human THP-1 cells assessed as induction of gamma-H2AX phosphorylation at 10 uM incubated for 24 hrs by immunoblotting analysis; assay type: cell-based
[9] = biological target: Protein mono-ADP-ribosyltransferase PARP12 (Homo sapiens) (UniProt Q9H0J9); test: Inhibition of human N-terminal FLAG/His-tagged recombinant PARP12 (500 to 701(end) residues) expressed in Sf9 cells at 1 uM relative to control
[10] = biological target: Poly [ADP-ribose] polymerase tankyrase-2 (Homo sapiens) (UniProt Q9H2K2); test: Inhibition of human recombinant N-terminal GST-tagged TNKS2 (849 to 1166(end) residues) expressed in Sf9 cells at 1 uM relative to control
Poly [ADP-ribose] polymerase tankyrase-2 (Homo sapiens), sequence (Q9H2K2 whole entry): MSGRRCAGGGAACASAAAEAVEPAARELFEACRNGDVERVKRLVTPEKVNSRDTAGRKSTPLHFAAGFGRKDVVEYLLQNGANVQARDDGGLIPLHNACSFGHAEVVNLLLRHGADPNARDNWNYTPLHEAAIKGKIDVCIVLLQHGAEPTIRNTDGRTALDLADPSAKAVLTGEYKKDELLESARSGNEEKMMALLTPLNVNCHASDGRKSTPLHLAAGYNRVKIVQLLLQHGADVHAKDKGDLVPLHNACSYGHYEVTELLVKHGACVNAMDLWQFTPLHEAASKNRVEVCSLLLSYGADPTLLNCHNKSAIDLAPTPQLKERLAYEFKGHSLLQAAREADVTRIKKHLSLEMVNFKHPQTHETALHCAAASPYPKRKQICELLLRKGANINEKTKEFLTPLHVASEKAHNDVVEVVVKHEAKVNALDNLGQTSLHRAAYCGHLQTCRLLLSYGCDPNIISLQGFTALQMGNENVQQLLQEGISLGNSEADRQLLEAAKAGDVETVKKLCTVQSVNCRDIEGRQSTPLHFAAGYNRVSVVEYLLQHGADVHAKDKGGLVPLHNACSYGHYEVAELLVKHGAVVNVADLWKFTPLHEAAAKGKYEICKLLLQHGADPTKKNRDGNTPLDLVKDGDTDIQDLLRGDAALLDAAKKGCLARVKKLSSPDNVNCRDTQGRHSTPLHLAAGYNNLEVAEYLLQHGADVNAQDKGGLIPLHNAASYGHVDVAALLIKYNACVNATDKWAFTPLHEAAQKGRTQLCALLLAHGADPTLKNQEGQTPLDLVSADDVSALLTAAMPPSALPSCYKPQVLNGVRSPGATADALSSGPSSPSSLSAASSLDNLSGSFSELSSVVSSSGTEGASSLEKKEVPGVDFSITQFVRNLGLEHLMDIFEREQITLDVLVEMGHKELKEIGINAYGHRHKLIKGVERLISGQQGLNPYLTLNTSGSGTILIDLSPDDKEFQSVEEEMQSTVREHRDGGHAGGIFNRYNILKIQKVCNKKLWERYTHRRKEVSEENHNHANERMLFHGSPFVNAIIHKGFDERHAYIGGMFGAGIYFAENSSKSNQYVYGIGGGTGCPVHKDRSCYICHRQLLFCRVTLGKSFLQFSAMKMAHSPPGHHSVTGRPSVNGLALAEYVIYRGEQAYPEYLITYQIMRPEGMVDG

[11] = biological target: T1, Poly [ADP-ribose] polymerase 1 (Homo sapiens, UniProt P09874); test: Inhibition of human PARP1 in human MX1 cells assessed as enzyme-DNA trapping activity at 1 uM incubated for 24 hrs by Western blot analysis; assay type: cell-based
T1 sequence (P09874 whole entry): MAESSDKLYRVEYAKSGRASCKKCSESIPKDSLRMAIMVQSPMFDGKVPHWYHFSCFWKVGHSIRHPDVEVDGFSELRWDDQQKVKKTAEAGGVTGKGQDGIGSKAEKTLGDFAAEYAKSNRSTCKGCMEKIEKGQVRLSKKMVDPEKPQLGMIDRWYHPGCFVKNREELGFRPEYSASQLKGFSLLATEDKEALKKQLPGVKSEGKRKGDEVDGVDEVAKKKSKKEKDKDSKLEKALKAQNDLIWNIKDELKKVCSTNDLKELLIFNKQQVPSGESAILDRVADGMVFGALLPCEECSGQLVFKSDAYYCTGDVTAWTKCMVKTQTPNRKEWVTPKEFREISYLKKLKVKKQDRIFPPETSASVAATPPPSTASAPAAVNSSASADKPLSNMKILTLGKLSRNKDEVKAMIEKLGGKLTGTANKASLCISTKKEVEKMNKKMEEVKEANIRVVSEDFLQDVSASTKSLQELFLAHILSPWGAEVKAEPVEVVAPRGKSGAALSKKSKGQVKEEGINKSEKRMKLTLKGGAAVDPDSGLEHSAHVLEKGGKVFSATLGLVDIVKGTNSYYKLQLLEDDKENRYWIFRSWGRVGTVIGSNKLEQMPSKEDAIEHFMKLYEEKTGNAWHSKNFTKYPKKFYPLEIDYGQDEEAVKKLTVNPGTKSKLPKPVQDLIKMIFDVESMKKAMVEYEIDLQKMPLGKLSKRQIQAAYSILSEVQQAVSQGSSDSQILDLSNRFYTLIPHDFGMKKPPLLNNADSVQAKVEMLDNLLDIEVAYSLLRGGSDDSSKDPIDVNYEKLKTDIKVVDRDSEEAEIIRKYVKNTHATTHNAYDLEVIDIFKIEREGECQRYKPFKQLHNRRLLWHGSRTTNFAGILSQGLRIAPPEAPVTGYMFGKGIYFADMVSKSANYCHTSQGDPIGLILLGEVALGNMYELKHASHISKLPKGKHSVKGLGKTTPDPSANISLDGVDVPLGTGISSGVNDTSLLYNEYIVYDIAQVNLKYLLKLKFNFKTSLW

Felis catus [12] = species on record: Felis catus; test: Binding affinity to cat PARP2 assessed as dissociative half-life by SPR assay
MDA-MB-436 [13] = test: Antitumor activity against BRCAl-deficient human MDA-MB-436 cells xenografted in Balb/c athymic nude mouse assessed as tumor growth inhibition at 3.3 mg/kg, po qd measured after 23 days; assay type: functional; conditions: MDA-MB-436, 552 h, time 23 day, read-out: TGI
MDA-MB-436 [14] = test: Antitumor activity against BRCAl-deficient human MDA-MB-436 cells xenografted in Balb/c athymic nude mouse assessed as tumor growth inhibition at 1.1 mg/kg, po qd measured after 23 days; assay type: functional; conditions: MDA-MB-436, 552 h, time 23 day, read-out: TGI
[15] = MRT (0 to t) in BALB/c mouse at 2.5 mg/kg, iv measured upto 24 hrs by LC-MS/MS analysis; assay type: ADME, organism-based; conditions: in vivo
[16] = Cmax in BALB/c mouse at 25 mg/kg, po measured upto 24 hrs by LC-MS/MS analysis; assay type: ADME, organism-based; parameters: time < 24 hrs, dose 25 mg/kg, route po; conditions: in vivo
[17] = biological target: T2, Poly [ADP-ribose] polymerase 2 (Homo sapiens, UniProt Q9UGN5)
T2 sequence (Q9UGN5 whole entry): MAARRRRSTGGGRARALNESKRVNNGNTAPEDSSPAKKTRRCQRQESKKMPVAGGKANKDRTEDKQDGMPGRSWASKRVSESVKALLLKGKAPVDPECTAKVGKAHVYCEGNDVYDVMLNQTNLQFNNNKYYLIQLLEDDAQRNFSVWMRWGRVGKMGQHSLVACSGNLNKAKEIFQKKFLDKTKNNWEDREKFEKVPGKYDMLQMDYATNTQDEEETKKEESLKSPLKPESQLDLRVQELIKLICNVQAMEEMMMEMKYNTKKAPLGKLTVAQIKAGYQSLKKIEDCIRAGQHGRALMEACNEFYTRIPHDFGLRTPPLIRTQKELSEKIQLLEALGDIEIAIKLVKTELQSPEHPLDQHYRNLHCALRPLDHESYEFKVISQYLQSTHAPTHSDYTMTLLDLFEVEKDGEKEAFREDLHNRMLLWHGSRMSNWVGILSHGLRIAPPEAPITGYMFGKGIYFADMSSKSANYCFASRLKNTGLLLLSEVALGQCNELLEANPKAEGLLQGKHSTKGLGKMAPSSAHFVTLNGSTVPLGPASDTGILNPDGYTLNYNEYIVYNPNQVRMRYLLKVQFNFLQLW
Description: Inhibition of human recombinant N-terminal GST-tagged PARP2 (2 to 583(end) residues) expressed in Sf9 cells

[18] = Tmax in BALB/c mouse at 25 mg/kg, po measured upto 24 hrs by LC-MS/MS analysis; assay type: ADME, organism-based; conditions: in vivo
DU-145 [19] = test: Antitumor activity against PTEN-deficient human DU-145 cells xenografted in Balb/c athymic nude mouse assessed as tumor growth inhibition at 5 mg/kg, po qd measured after 14 days; assay type: functional; conditions: DU-145, 336 h, time 14 day, read-out: TGI
[20] = AUC (0 to infinity) in BALB/c mouse at 2.5 mg/kg, iv measured upto 24 hrs by LC-MS/MS analysis; assay type: ADME, organism-based; parameters: dose 2.5 mg/kg, time < 24 hrs, route iv; conditions: in vivo
MDA-MB-436 [21] = test: Antitumor activity against BRCAl-deficient human MDA-MB-436 cells xenografted in Balb/c athymic nude mouse assessed as tumor growth inhibition at 10 mg/kg, po qd measured after 23 days; assay type: functional; conditions: MDA-MB-436, 552 h, time 23 day, read-out: TGI
[22] = Half life in BALB/c mouse at 2.5 mg/kg, iv measured upto 24 hrs by LC-MS/MS analysis; assay type: ADME, organism-based; conditions: in vivo
[23] = Toxicity in Balb/c athymic nude mouse xenografted with PTEN-deficient human DU145 cells assessed as change in body weight at 5 to 20 mg/kg, po qd measured after 14 days; assay type: organism-based, DU-145; conditions: in vivo, 336 h, dose 5-20 mg/kg, time 14 day
DU-145 [24] = test: Antitumor activity against PTEN-deficient human DU-145 cells xenografted in Balb/c athymic nude mouse assessed as tumor growth inhibition at 10 mg/kg, po qd measured after 14 days; assay type: functional; conditions: DU-145, 336 h, time 14 day, read-out: TGI
[25] = MRT (0 to infinity) in BALB/c mouse at 25 mg/kg, po measured upto 24 hrs by LC-MS/MS analysis; assay type: ADME, organism-based; conditions: in vivo
[26] = MRT (0 to t) in BALB/c mouse at 25 mg/kg, po measured upto 24 hrs by LC-MS/MS analysis; assay type: ADME, organism-based; conditions: in vivo
[27] = AUC (0 to t) in BALB/c mouse at 2.5 mg/kg, iv measured upto 24 hrs by LC-MS/MS analysis; assay type: ADME, organism-based; parameters: time < 24 hrs, dose 2.5 mg/kg, route iv; conditions: in vivo
[28] = Binding affinity to cat PARP2 assessed as dissociation constant by SPR assay; parameters: species or system Felis catus
[29] = AUC (0 to t) in BALB/c mouse at 25 mg/kg, po measured upto 24 hrs by LC-MS/MS analysis; assay type: ADME, organism-based; parameters: time < 24 hrs, dose 25 mg/kg, route po; conditions: in vivo
[30] = Toxicity in Balb/c athymic nude mouse xenografted with BRCAl-deficient human MDA-MB-436 cells assessed as change in body weight at 1.1 to 10 mg/kg, po qd measured after 23 days; assay type: organism-based; conditions: in vivo, 552 h, dose 1.1-10 mg/kg, time 23 day
[31] = biological target: T1, Poly [ADP-ribose] polymerase 1; test: Inhibition of human recombinant PARP1 expressed in Escherichia coli BL21(DE3) incubated for 1 hr by ELISA assay
[32] = Oral bioavailability in BALB/c mouse at 25 mg/kg measured upto 24 hrs by LC-MS/MS analysis; assay type: ADME, organism-based; conditions: in vivo
[33] = Half life in BALB/c mouse at 25 mg/kg, po measured upto 24 hrs by LC-MS/MS analysis; assay type: ADME, organism-based; conditions: in vivo
[34] = Toxicity in C57BL/6 mouse implanted with mouse MC38 cells assessed as change in body weight at 10 mg/kg, po qd measured after 17 days; assay type: organism-based, MC-38; conditions: in vivo, 408 h, time 17 day
[35] = biological target: Protein mono-ADP-ribosyltransferase PARP3 (Homo sapiens, UniProt Q9Y6F1); test: Inhibition of human recombinant N-terminal GST-tagged PARP3 (2 to 540(end) residues) expressed in Sf9 cells
Protein mono-ADP-ribosyltransferase PARP3, sequence (Q9Y6F1 whole entry): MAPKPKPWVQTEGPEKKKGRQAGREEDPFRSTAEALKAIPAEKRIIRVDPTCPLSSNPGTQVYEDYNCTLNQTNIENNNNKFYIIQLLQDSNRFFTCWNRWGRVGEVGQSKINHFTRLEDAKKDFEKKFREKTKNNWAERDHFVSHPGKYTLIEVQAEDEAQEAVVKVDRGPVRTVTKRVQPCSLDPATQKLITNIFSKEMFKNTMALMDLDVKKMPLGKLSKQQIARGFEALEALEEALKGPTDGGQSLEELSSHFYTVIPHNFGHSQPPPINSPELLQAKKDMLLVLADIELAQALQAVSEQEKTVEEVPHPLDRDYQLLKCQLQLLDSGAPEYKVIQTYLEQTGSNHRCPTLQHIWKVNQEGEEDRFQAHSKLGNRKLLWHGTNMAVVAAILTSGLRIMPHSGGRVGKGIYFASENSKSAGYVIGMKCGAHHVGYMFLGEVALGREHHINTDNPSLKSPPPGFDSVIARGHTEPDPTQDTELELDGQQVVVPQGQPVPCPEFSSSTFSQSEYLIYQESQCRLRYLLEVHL

[36] = biological target: Protein mono-ADP-ribosyltransferase PARP6 (Homo sapiens, UniProt Q2NL67); test: Inhibition of human recombinant N-terminal GST-tagged PARP6 (1 to 630(end) residues) expressed in Sf9 cells
[37] = biological target: Protein mono-ADP-ribosyltransferase TIPARP (Homo sapiens, UniProt Q7Z3E1); test: Inhibition of human recombinant N-terminal FLAG-tagged PARP7 (400 to 657(end) residues) expressed in Sf9 cells
[38] = Cmax in BALB/c mouse at 2.5 mg/kg, iv measured upto 24 hrs by LC-MS/MS analysis; assay type: ADME, organism-based; parameters: time < 24 hrs, dose 2.5 mg/kg, route iv; conditions: in vivo
[39] = AUC (0 to infinity) in BALB/c mouse at 25 mg/kg, po measured upto 24 hrs by LC-MS/MS analysis; assay type: ADME, organism-based; parameters: dose 25 mg/kg, time < 24 hrs, route po; conditions: in vivo
DU-145 [40] = test: Antitumor activity against PTEN-deficient human DU-145 cells xenografted in Balb/c athymic nude mouse assessed as tumor growth inhibition at 20 mg/kg, po qd measured after 14 days; assay type: functional; conditions: DU-145, 336 h, time 14 day, read-out: TGI
[41] = biological target: T2, Poly [ADP-ribose] polymerase 2; test: Inhibition of human recombinant PARP2 expressed in Escherichia coli BL21(DE3) incubated for 1 hr by ELISA assay
[42] = biological target: Protein mono-ADP-ribosyltransferase PARP8 (Homo sapiens, UniProt Q8N3A8); test: Inhibition of PARP8 (unknown origin)
[43] = Aqueous solubility of the compound; assay type: physicochemical
[44] = Tmax in BALB/c mouse at 2.5 mg/kg, iv measured upto 24 hrs by LC-MS/MS analysis; assay type: ADME, organism-based; conditions: in vivo
[45] = MRT (0 to infinity) in BALB/c mouse at 2.5 mg/kg, iv measured upto 24 hrs by LC-MS/MS analysis; assay type: ADME, organism-based; conditions: in vivo
MC-38 [46] = test: Antitumor activity against mouse MC38 cells implanted in C57BL/6 mouse assessed as tumor growth inhibition at 10 mg/kg, po qd measured after 17 days; assay type: functional; conditions: MC-38, 408 h, time 17 day, read-out: TGI
[47] = biological target: T1, Poly [ADP-ribose] polymerase 1; test: Inhibition of human recombinant N-terminal GST-tagged PARP1 (2 to 1014(end) residues) expressed in Sf9 cells
[48] = Binding affinity to cat PARP1 assessed as dissociation constant by SPR assay; parameters: species or system Felis catus
[49] = biological target: T2, Poly [ADP-ribose] polymerase 2; test: Inhibition of PARP2 (unknown origin)

Question: With `CCC(CC)N1CCN(C(=O)c2cc(Cn3c(=O)[nH]c(=O)c4ccccc43)ccc2F)CC1=O` as the molecule, how does the inhibition [1] read?
Answer: The inhibition was 45%.

Question: What about the T1/2 (Felis catus [2]) of the same molecule?
Answer: The T1/2 was 142 min.

Question: And the inhibition [3]?
Answer: The inhibition was “inactive”.

Question: And the inhibition [4]?
Answer: The inhibition was “inactive”.

Question: What about the inhibition [5] of the same molecule?
Answer: The inhibition was “inactive”.

Question: What about the inhibition [6] of the same molecule?
Answer: Its inhibition is “inactive”.

Question: And the inhibition [7]?
Answer: The inhibition was “Active”.

Question: What about the Activity (MC-38 [8]) of the same molecule?
Answer: The Activity was “Active”.

Question: What about the inhibition (THP-1) of the same molecule?
Answer: The inhibition was “Active”.

Question: What about the inhibition [9] of the same molecule?
Answer: The inhibition was “inactive”.

Question: What about the inhibition [10] of the same molecule?
Answer: The inhibition was “inactive”.

Question: And the PARP1-DNA trapping activity [11]?
Answer: The PARP1-DNA trapping activity was “Active”.

Question: What about the T1/2 (Felis catus [12]) of the same molecule?
Answer: Its T1/2 is 140 min.

Question: What does the source list for `CCC(CC)N1CCN(C(=O)c2cc(Cn3c(=O)[n-]c(=O)c4ccccc43)ccc2F)CC1=O.[Na+]`?
Answer: inhibition in vivo at 3.3 mg/kg (MDA-MB-436 [13]): 84.9%; inhibition in vivo at 1.1 mg/kg (MDA-MB-436 [14]): 54.6%; MRT last at 24 h [15]: 7.8 min; Cmax [16]: 1540 ng/mL; IC50 [17]: 0.87 nM; Tmax [18]: 4.8 min; inhibition in vivo at 5 mg/kg (DU-145 [19]): 69.2%; AUC(0-inf) [20]: 419 ng·h/mL; inhibition in vivo at 10 mg/kg (MDA-MB-436 [21]): 94.3%; half-life [22]: 7.8 min; Activity [23]: Non-Toxic; inhibition in vivo at 10 mg/kg (DU-145 [24]): 87%; MRT inf [25]: 19.2 min; MRT last at 24 h [26]: 18.6 min; AUC(0-t) at 24 h [27]: 417 ng·h/mL; Kd [28]: 0.75 nM; AUC(0-t) at 24 h [29]: 612 ng·h/mL; Activity [30]: Non-Toxic; IC50 [31]: 0.94 nM; bioavailability [32]: 14.7%; half-life [33]: 16.2 min; Activity [34]: Non-Toxic; IC50 [35]: 51 nM; IC50 [36]: ~280 nM; IC50 [37]: 0.21 nM; Cmax [38]: 2430 ng/mL; AUC(0-inf) [39]: 617 ng·h/mL; inhibition in vivo at 20 mg/kg (DU-145 [40]): 91.2%; IC50 [41]: 0.87 nM; IC50 [42]: 13 nM; solubility [43]: 223 µg/mL; Tmax [44]: 1.8 min; MRT inf [45]: 7.8 min; inhibition in vivo at 10 mg/kg (MC-38 [46]): 57.3%; IC50 [47]: 0.94 nM; Kd [48]: 0.83 nM

Question: For `C[C@]12CCCN1CC1=NNC(=O)c3cc(F)cc4[nH]c2c1c34` [PAMIPARIB], which IC50 [49] is on record?
Answer: The IC50 was 0.3 nM.
